Measurements published in patent US20050208597A1, “Microarray analysis of post-translational modifications” (The Board of Trustees of the Leland Stanford Junior …, priority 2004, published 2005).

Key:
Assay type in all cases: cell-based
[1] = test system: Akt (Ser473) phosphorylation; assay: RPP microarray, phospho-specific antibody probing of cell lysates
Description: (§1) FIG. 2. Applications of reverse-phase protein microarrays. (A) Kinetics of PLCγ1 (Y783) phosphorylation in Jurkat T cells following stimulation with anti-CD3 (pink triangle), anti-CD28 (green circle), both antibodies (blue squares), or isotype control antibodies (empty squares) over 30 minutes. Left panel: Phosphorylation kinetics unadjusted for total PLCγ1 levels. Middle Panel: Total PLCγ1 levels. Right panel: Ratiometric data on phosphorylation kinetics (phospho-PLCγ1/total PLCγ1). See text for details. (B) Phosphorylation kinetics of four signaling proteins (PLCγ1, Akt, MEK1/2, and p44/42 MAPK) in wildtype Jurkat T cells (black square) and J.gamma1, a mutant Jurkat line deficient in PLCγ1 (empty circle), stimulated with both anti-CD3 and CD28 antibodies. […] Jurkats T cells were stimulated with either anti-CD3 or anti-CD28 antibodies in the presence of one of three kinase inhibitors (see text for details). Lysates were collected after 10 minutes of stimulation, spotted on slides, and probed with four phospho-specific antibodies. Representative spots of p-p44/42 MAPK and p-MEK1/2 are shown for anti-CD3 stimulated cells and p-Akt (Ser473) and p-PDK1 for anti-CD28 treated cells.
(§2) To fabricate the protein microarrays, we used a contact-printing robotic microarrayer to deliver nanoliter (˜6 nl) volumes of whole cell lysates onto nitrocellulose-coated slides. FAST slides (Schleicher and Schuell BioSciences, Dassel, Germany). Depending on the experimental setup, two different formats of FAST slides were used. In experiments where the number of samples was greater than the number of analytes measured, slides with a single pad capable of holding over 2000 lysate spots were used. In our screening experiments where the number of analytes exceeds the number of samples, we used slides carrying eight sectored pads or subarrays for multiplex analysis. Under our current configuration, a maximum of 24 spots can be fitted onto each individual pad (6 mm×6 mm).
(§3) For small-scale experiments, we used a precision 8-pin manual microarrayer system (Microcaster system from Schleicher & Schuell). […] The protein lysates dried within seconds of printing and were tightly bound to the nitrocellulose platform via electrostatic interactions.

[2] = test system: MEK1/2 phosphorylation; assay: as above
Description: as §1, §2, §3

[3] = test system: p44/42 MAPK phosphorylation; assay: as above
Description: as §1, §2, §3

[4] = test system: SLP-76; assay: RPP microarray, phosphorylation-state independent antibody; conditions: PMA treated vs untreated Jurkat T cells
Description: (§4) FIG. 1. Protein microarray performance characteristics and validation. (A) Four purified antigens spotted in triplicate over six 2-fold dilutions starting at 900 pg per spot and probed with their corresponding antibodies. (B) Quantitative comparison between Western immunoblotting and protein microarray for measuring Hsp70 induction in heat-shocked Jurkat T cells. (C) Detection of changes in phosphorylation in signaling proteins in PMA treated vs. untreated Jurkat T cells. Corresponding immunoblots of the same samples are shown on the right. Antibodies specific for p44/42 MAPK, MEK1/2 and Akt are phosphorylation-state dependent. Antibodies for SLP-76 and β-actin are not dependent on phosphorylation.
(§5) To fabricate the protein microarrays, we used a contact-printing robotic microarrayer to deliver nanoliter (˜6 nl) volumes of whole cell lysates onto nitrocellulose-coated slides. […] In experiments where the number of samples was greater than the number of analytes measured, slides with a single pad capable of holding over 2000 lysate spots were used. […]
(§6) For small-scale experiments, we used a precision 8-pin manual microarrayer system (Microcaster system from Schleicher & Schuell). The resulting features measured approximately 500 μm in diameter. […] Bound primary antibodies were detected with a horseradish peroxidase (HRP)-linked secondary antibody. […]

[5] = test system: β-actin; assay: as above; conditions: PMA treated vs untreated Jurkat T cells
Description: as §4, §5, §6

[6] = test system: PDK1 phosphorylation; assay: RPP microarray, phospho-specific antibody probing of cell lysates; conditions: Jurkat cells stimulated through CD28 in the presence of the inhibitor; lysates after 10 minutes; one of the 'other 3 kinases' (named)
Description: as §1, §2, §3

[7] = PMA treated vs untreated Jurkat T cells
[8] = Jurkat cells stimulated through CD3 in the presence of the inhibitor, lysates after 10 minutes

Compound | phosphorylation of Akt/PKB [1, 7] | phosphorylation of MEK1/2 [2, 7] | phosphorylation of p44/42 MAPK [3, 7] | abundance of SLP-76 [4] | abundance of β-actin [5] | phosphorylation of Akt (Ser473) ([1]; Jurkat cells stimulated through CD28 in the presence of the inhibitor, lysates after 10 minutes) | phosphorylation of MEK1/2 [2, 8] | phosphorylation of PDK1 [6] | phosphorylation of p44/42 MAPK [3, 8]
CCCCCCCCCCCCCC(=O)O[C@@H]1[C@@H](C)[C@@]2(O)[C@@H](C=C(CO)C[C@]3(O)C(=O)C(C)=C[C@@H]23)[C@@H]2C(C)(C)[C@]12OC(C)=O [PMA, phorbol 12-myristate 13-acetate] | not significantly affected | rapid phosphorylation | rapid phosphorylation | no changes | no changes | – | – | – | –
N#CC(=C(/N)Sc1ccccc1N)/C(C#N)=C(\N)Sc1ccccc1N [U0126] | – | – | – | – | – | had no effect | had no effect | had no effect | specifically blocked
